Test results: patent publication US7115754B2, “Pyrrolidine derivatives as oxytocin antagonists” (Applied Research Systems ARS Holding N.V., priority 2002, dated 2006)

Tests used:
[1] = target: T1, human Oxytocin (hOT) receptor (Homo sapiens, UniProt P30559); experiment: In vitro competition binding assay on hOT receptor with scintillation proximity assay; settings: inhibition of [125I]-OVTA binding, membranes from HEK293EBNA cells expressing hOT receptor; read-out: Binding Affinity hOT-R (Ki [nM])
T1 construct: expressed in transfected cells; host or cells: HEK293EBNA (membranes)
T1 sequence (P30559 1-389): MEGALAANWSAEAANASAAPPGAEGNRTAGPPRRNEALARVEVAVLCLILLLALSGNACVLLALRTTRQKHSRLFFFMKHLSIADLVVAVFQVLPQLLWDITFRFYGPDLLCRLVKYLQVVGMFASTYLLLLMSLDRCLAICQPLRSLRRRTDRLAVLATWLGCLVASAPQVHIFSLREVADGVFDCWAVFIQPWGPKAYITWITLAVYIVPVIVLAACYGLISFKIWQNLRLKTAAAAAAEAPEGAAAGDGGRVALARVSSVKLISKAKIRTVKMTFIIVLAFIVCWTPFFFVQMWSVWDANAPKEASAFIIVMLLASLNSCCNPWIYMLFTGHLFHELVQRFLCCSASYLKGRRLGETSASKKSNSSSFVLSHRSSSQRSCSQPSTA
Protocol: The compounds according to Formula I may be subjected to the following assays: • a) In vitro Competition Binding Assay on hOT Receptor with Scintillation Proximity Assay (11).
This assay allows to determine the affinity of the test compounds for the human Oxytocin (hOT) receptor. Membranes from HEK293EBNA (cells expressing the hOT receptor) were suspended in buffer containing 50 mM Tris-HCl, pH 7.4, 5 mM MgCl2 and 0.1% BSA (w/v). The membranes (2–4 μg) were mixed with 0.1 mg SPA bead coated with wheat-germ aglutinin (WGA-PVT-Polyethylene Imine beads from Amersham) and 0.2 nM of the radiolabelled [^125I]-OVTA (OVTA being Ornithin Vasoactive, an analogue of OT for competitive binding experiments). Non-specific binding was determined in the presence of 1 μM Oxytocin. The total assay volume was 100 μl. The plates (Corning® NBS plate) were incubated at room temperature for 30 min and counted on a Mibrobeta® plate scintillation counter. Competitive binding was performed in presence of compounds of formula (I) at the following concentrations: 30 μM, 10 μM, 1 μM, 300 nM, 100 nM, 10 nM, 1 nM, 100 pM, 10 pM. The competitive binding data were analysed using the iterative, nonlinear, curve-fitting program, “Prism” (GraphPad Software, Inc).
The ability of pyrrolidine derivatives of formula (I) to inhibit the binding of ^125-OVTA to the OT-receptor was assessed using the above described in vitro biological assay. Representative values for some example compounds are given in Table I where the binding affinity of test compounds from the above examples is expressed by the inhibition constant (Ki; nM). From these values, it can be derived that said test compounds according to formula I do show a significant binding to the oxytocin receptor.

[2] = target: T2, hOT receptor (HEK293EBNA cells expressing the hOT receptor) (Homo sapiens, UniProt P30559); experiment: Functional assay No. 1: inhibition of oxytocin mediated Ca2+-mobilization by FLIPR; type: cell-based; settings: OT 40 nM, fluo-4, read-out: Inhibition of Ca2+ mobilisation, hOT-R IC50
T2 construct: expressed in transfected cells; host or cells: HEK293EBNA
T2 sequence (P30559 1-389): T1 sequence (P30559 1-389)
Protocol: This assay allows the measurement of the inhibition of OT/OT-R mediated calcium mobilization by test compounds of formula (I).
Preparing the plates: FLIPR-plates were pre-coated with PLL (Poly-L-Lysine) 10 μg/ml+0.1% gelatine to attach HEK293EBNA cells (Human Embryonic Kidney cells expressing the hOT receptor) and incubated for 30 min up to 2 days at 37° C. The cells were plated out into 96-well-plates (60000 cells/well).
Labelling with fluo-4: 50 μg of fluo-4 (Ca2+ sensitive fluorescent dye) were dissolved in 20 μl pluronic acid (20% in DMSO). The dissolved fluo-4 was then diluted in 10 ml DMEM (Dubecco's Minimal Essential Medium)-F12 culture medium. The plates were washed one time with DMEM-F12 medium. […] Fluo-4 is taken up by the cytoplasm of the cells. […]
The relative fluorescence of Fluo-4 (λex=488 nm, λem=590 nm) is then measured by the FLIPR in presence or absence of compounds of formula (I). The fluorescence of the marker being sensitive to the amount of Ca^2+, the Ca^2+ movements can be detected. Then, it can be determined the ability of compounds of formula (I) to antagonize the oxytocin-induced intracellular Ca^2+-mobilization mediated by the oxytocin receptor.
The activities of the pyrrolidine derivatives according to formula I were assessed using the above described in vitro biological assay. […]

[3] = test system: oxytocin-induced uterine contractions in the rat; experiment: In vivo model for inhibition of uterine contractions; settings: 40 min after test compound administration
Protocol: The ability of compounds of formula (I) to effectively antagonize oxytocin-induced IP3-synthesis mediated by the oxytocin receptor, can be assessed using the above described in vitro biological assay. • d) In vivo Model for Inhibition of Uterine Contractions
The assay evaluates the biological effect of tested compounds in an in vivo model of preterm labor, premature birth.
Non-pregnant Charles River CD (SD) BR female rats (9–10 weeks old, 200–250 g) were treated at 18 and 24 hours before the experiment with 250 μg/kg, i.p. diethylstilbestrol (DES). For the assay, the animal was anaesthetised with urethane (1.75 g/kg, i.p.) and placed on a homeothermic operating table. The trachea was isolated and cannulated with a suitable polyethylene (PE) tubing. […]
The contractile response of the uterus to oxytocin was quantified by measuring the intra-uterine pressure and the number of contractions. The effect of the reference and test compounds was evaluated by comparing pre- and post-treatment pressure values. In addition, contractions of the uterine were measured at 5, 40, 75, 110, 145 and 180 minutes after test compound administration.
The activities of the pyrrolidine derivatives claimed in the Formula I can be assessed using the above described in vivo biological assay. […]

CON=C1C[C@@H](CO)N(C(=O)c2ccc(-c3ccccc3)cc2)C1 [Compound 2, (3EZ,5S)-1-(1,1′-biphenyl-4-ylcarbonyl)-5 (hydroxymethyl) pyrrolidin-3-one O-methyloxime]
Ki [1]: 139 nM
IC50 [2]: 90 nM
% Reduction of Uterine Contraction ([3]; 10 mg/kg per i.v.): 39.8 ± 10.0%
% Reduction of Uterine Contraction ([3]; 30 mg/kg per os): 50.9 ± 8.6%

CO/N=C1/C[C@@H](CO)N(C(=O)c2ccc(-c3ccccc3)cc2)C1 [Compound 4, (3Z,5S)-1-(1,1′-biphenyl-4-ylcarbonyl)-5-(hydroxymethyl) pyrrolidin-3-one O-methyloxime]
Ki [1]: 94.9 nM
IC50 [2]: 10 nM

CON=C1C[C@@H](COCC(=O)NCCN2CCCC2)N(C(=O)c2ccc(-c3ccccc3)cc2)C1 [Compound 7, 2-{[(2S,4EZ)-1-(1,1′-biphenyl-4-ylcarbonyl)-4-(methoxyimino)pyrrolidin-2-yl]methoxy}-N-(2-pyrrolidin-1-ylethyl)acetamide]
Ki [1]: 140 nM

COC[C@@H]1CC(=NOC)CN1C(=O)c1ccc(-c2ccccc2)cc1 [Compound 8, (3EZ,5S)-1-(1,1′-biphenyl-4-ylcarbonyl)-5-(methoxymethyl)pyrrolidin-3-one O-methyloxime]
Ki [1]: 55 nM

CON=C1C[C@@H](CN2C(=O)c3ccccc3C2=O)N(C(=O)c2ccc(-c3ccccc3)cc2)C1 [Compound 12, 2-{[(2S,4EZ)-1-(1,1′-biphenyl-4-ylcarbonyl)-4-(methoxyimino)pyrrolidin-2-yl]methyl}-1H-isoindole-1,3(2H)-dione]
Ki [1]: 5.1 nM

CON=C1C[C@@H](CCO)N(C(=O)c2ccc(-c3ccccc3)cc2)C1 [Compound 16, (3EZ,5S)-1-(1,1′-biphenyl-4-ylcarbonyl)-5-(2-hydroxyethyl)pyrrolidin-3-one O-methyloxime]
Ki [1]: 120 nM
